{
  "source": "paper PMC6028453",
  "about": "“BrlR from Pseudomonas aeruginosa is a receptor for both cyclic di-GMP and pyocyanin” (Nature Communications, 2018)",
  "key": {"C2E mut1 DNA binding": {"target": "T1, C2E mut1 DNA binding (Pseudomonas aeruginosa, UniProt Q9HUT5, D35A/R31A/Y270A/Y40A)", "T1 construct": "His6-SUMO (N, cleaved yes); made in house; host or cells: E. coli BL21 DE3", "T1 sequence (Q9HUT5 whole entry R31A/D35A/Y40A/Y270A)": "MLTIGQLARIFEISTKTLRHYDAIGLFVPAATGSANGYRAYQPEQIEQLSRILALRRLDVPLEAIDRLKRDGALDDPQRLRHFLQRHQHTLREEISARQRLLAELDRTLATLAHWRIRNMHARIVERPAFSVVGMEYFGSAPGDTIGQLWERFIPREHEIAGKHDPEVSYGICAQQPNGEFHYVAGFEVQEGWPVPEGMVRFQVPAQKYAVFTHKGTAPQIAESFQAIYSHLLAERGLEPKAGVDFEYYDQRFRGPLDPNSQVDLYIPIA", "test": "EMSA, C2E mut1 with PbrlR DNA", "assay_type": "biochemical", "experimental": "(§1) A 6-carboxy-fluorescein (FAM)-labeled 36-bp brlR promoter DNA (PbrlR) or 80-bp mexA/mexE promoter DNA (PmexA/PmexE) probes (~0.375 pmol), BrlR protein and varying amounts of inducers were incubated in binding buffer (10 mM Tris HCl [pH 7.4], 50 mM KCl, 1 mM DTT, […] and 5 ng/mL poly [dI-dC]) for 60 min at 25 °C. Finally, glycerol was added to a concentration of 6.5%. The samples were subjected to a 5% polyacrylamide gel electrophoresis and run in 0.5 × Tris-borate-EDTA buffer at 80 V for 1 h at room temperature. Imaging and data analyses were performed using a Typhoon Scanner (GE Healthcare) and Imagequant software. The probes used are listed in Supplementary Table 1."}, "BrlR": {"target": "T2, BrlR (Pseudomonas aeruginosa, UniProt Q9HUT5)", "T2 construct": "His6-SUMO (N, cleaved yes); made in house; host or cells: E. coli BL21 DE3", "test": "Surface plasmon resonance (SPR) analysis", "assay_type": "binding", "settings": "SPR, first submitted version of the manuscript (quoted by reviewer); authors later call it a very weak artificial affinity", "experimental": "The binding affinity of diverse toxic compounds for BrlR were investigated by SPR using a BIAcore-T200 apparatus (GE Healthcare). The ligand, BrlR (20 μM in 10 mM sodium acetate, pH 4.5), was immobilized on an activated CM5 sensor chip by amine coupling (BIAcore) with 4400 response units (RU), and the unreacted sites were blocked with 1.0 M ethanolamine–HCl (pH 8.5). Steady-state binding analysis was performed with injections of different molecules at different concentrations over the immobilized BrlR surface at a flow rate of 20 μL min^−1 at 25 °C. Association was measured for 180 s, followed by 120 s of dissociation in running buffer (20 mM Hepes pH 7.5, 150 mM NaCl). The sensorgrams for specific interactions were obtained by subtracting the reference unimmobilized flow cell response from that of the sample. Since BrlR only has one binding site for pyocyanin or other toxic compounds (Fig. 5a–f), the kinetic analysis of the sensorgrams from analyte interaction with the immobilized BrlR was performed by fitting the binding curves to a 1:1 binding model. To determine the steady state KD values, equilibrium responses were plotted against analyte concentrations, and the resulting curves were fitted to the steady state model in the BIAevaluation software package, version 3.0 (GE Healthcare)."}, "BrlR mutant R67A": {"target": "T3, BrlR mutant R67A (Pseudomonas aeruginosa, UniProt Q9HUT5, R67A)", "T3 construct": "His6-SUMO (N, cleaved yes); made in house; host or cells: E. coli BL21 DE3", "T3 sequence (Q9HUT5 whole entry R67A)": "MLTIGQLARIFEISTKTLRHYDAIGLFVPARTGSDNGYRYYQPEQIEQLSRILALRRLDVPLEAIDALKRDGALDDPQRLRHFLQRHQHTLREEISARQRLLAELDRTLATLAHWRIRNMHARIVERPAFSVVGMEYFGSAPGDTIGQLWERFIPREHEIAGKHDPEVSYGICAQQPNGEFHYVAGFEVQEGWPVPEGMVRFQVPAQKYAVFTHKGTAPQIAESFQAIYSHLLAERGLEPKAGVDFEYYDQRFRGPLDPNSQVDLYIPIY", "test": "FP binding assay, BrlR R67A", "experimental": "F-c-di-GMP and F-c-di-AMP both contain a fluorophore at one of the 2′-ribose hydroxyls of c-di-GMP and c-di-AMP, respectively (Fig. 2f). To measure the binding of c-di-GMP and c-di-AMP to BrlR variants, 1 nM F-c-di-GMP or F-c-di-AMP was incubated with increasing amounts of indicated BrlR WT, BrlR mutation, or BrlR-C in reaction buffer (25 mM HEPES, 100 mM NaCl, pH 7.5) at 25 °C for 20 min. 1 nM fluorescein was incubated with BrlR WT in the same reaction buffer at 25 °C. FP measurements were conducted on a Synergy 4 Microplate Reader (BioTek) at 25 °C. All experiments were performed in triplicate. The curves were fitted to deduce binding affinities by GraphPad Prism 5.\nBrlR–c-di-GMPs interactions in two separate c-di-GMP binding sites\nIn the first binding site, c-di-GMP is half accommodated by the antiparallel β-sheet and two residues (M1 and D35). In detail, the backbone amide protons of the first M1 residue form a hydrogen bond (H-bond) with the phosphate oxygen atom of c-di-GMP, and the side chain of R31 forms two H-bonds with the Gua1 base. The residue D35 also forms an H-bond with the Gua1 base. The aromatic ring of Y40 interacts with the Gua1 base through a hydrophobic π-π interaction. In addition, the hydroxyl group of the Y270 side chain from another subunit interacts with the phosphate 2 of c-di-GMP via an H-bond (Fig. 2d). […]"}, "BrlR Y270A DNA binding": {"target": "T4, BrlR Y270A DNA binding (Pseudomonas aeruginosa, UniProt Q9HUT5, Y270A)", "T4 construct": "His6-SUMO (N, cleaved yes); made in house; host or cells: E. coli BL21 DE3", "T4 sequence (Q9HUT5 whole entry Y270A)": "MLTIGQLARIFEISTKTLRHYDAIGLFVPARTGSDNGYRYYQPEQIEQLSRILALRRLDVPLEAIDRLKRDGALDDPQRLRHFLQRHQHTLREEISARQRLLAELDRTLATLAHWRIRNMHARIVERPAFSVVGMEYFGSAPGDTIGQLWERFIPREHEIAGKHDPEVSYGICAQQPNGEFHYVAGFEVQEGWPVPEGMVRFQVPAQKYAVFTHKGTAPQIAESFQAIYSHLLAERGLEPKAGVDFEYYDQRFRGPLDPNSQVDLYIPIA", "test": "EMSA, BrlR Y270A", "assay_type": "biochemical", "experimental": "as §1"}, "BrlR Y40A DNA binding": {"target": "T5, BrlR Y40A DNA binding (Pseudomonas aeruginosa, UniProt Q9HUT5, Y40A)", "T5 construct": "His6-SUMO (N, cleaved yes); made in house; host or cells: E. coli BL21 DE3", "T5 sequence (Q9HUT5 whole entry Y40A)": "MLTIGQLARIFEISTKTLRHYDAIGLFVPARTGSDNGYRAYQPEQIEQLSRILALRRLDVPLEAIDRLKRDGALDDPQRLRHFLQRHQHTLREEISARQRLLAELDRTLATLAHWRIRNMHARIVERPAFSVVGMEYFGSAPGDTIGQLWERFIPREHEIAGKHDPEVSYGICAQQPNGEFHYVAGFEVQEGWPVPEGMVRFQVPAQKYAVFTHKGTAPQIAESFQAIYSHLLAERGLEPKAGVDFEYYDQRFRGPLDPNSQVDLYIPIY", "test": "EMSA, BrlR Y40A", "assay_type": "biochemical", "experimental": "as §1"}},
  "data": [
    {"smiles": "Nc1nc2c(ncn2[C@@H]2O[C@@H]3COP(=O)(O)O[C@H]4[C@@H](O)[C@H](n5cnc6c(=O)[nH]c(N)nc65)O[C@@H]4COP(=O)(O)O[C@H]3[C@H]2O)c(=O)[nH]1", "note": "[c-di-GMP, cyclic diguanylate monophosphate]", "values": [
      {"measurement": "BrlR-DNA complex in the presence vs absence of c-di-GMP", "setting": "C2E mut1 DNA binding", "value": 1.5, "unit": "fold"},
      {"measurement": "Kd", "setting": "BrlR", "value": 2690, "unit": "µM"},
      {"measurement": "Kd", "setting": "BrlR mutant R67A", "value": "16.4 ± 1", "unit": "µM"},
      {"measurement": "DNA bound in the presence vs absence of c-di-GMP", "setting": "BrlR Y270A DNA binding", "value": "~ 3.4 fold"},
      {"measurement": "DNA bound in the presence vs absence of c-di-GMP", "setting": "BrlR Y40A DNA binding", "value": "~ 1.1 fold"}
    ]}
  ]
}
